Reference: ChEMBL document CHEMBL1201862, “PubChem BioAssay data set” (2004)
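Dose response: 5 concentrations. Exposure: 48 h. Format: 96-well plates. Endpoint: linear interpolation; highest concentration if not reached. GI50 = concentration required for 50% inhibition of growth.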 Activity calls are given as the source filed them. Rule as the data show it: active = GI50 up to about 1.1 µM and inactive = higher.

Experiments:
Test in all cases: inhibition of tumour cell growth, NCI panel, 48 h
786-0 = system: 786-0
HCC 2998 = system: HCC 2998
HL-60 = system: HL-60
KM12 = system: KM12
LOX IMVI = system: LOX IMVI
M14 = system: M14
MOLT-4 = system: MOLT-4
NCI-H226 = system: NCI-H226
NCI-H522 = system: NCI-H522
OVCAR-3 = system: OVCAR-3
OVCAR-4 = system: OVCAR-4
PC-3 = system: PC-3
SF-539 = system: SF-539
SK-MEL-5 = system: SK-MEL-5
SNB-75 = system: SNB-75
SR = system: SR
T47D = system: T47D
UACC-257 = system: UACC-257
UO-31 = system: UO-31
RPMI-8226 = system: RPMI-8226

Compound	GI50 (786-0)	GI50 (HCC 2998)	GI50 (HL-60)	GI50 (KM12)	GI50 (LOX IMVI)	GI50 (M14)	GI50 (MOLT-4)	GI50 (NCI-H226)	GI50 (NCI-H522)	GI50 (OVCAR-3)	GI50 (OVCAR-4)	GI50 (PC-3)	GI50 (SF-539)	GI50 (SK-MEL-5)	GI50 (SNB-75)	GI50 (SR)	GI50 (T47D)	GI50 (UACC-257)	GI50 (UO-31)	GI50 (RPMI-8226)
CCOC(=S)SC/C(=N\OC(C)(C)OC)c1ccccc1	55.1 µM (inactive)	26.9 µM (inactive)	20.2 µM (inactive)	31.9 µM (inactive)	16.3 µM (inactive)	29.1 µM (inactive)	20 µM (inactive)	43.8 µM (inactive)	24.1 µM (inactive)	41.1 µM (inactive)	69 µM (inactive)	59.4 µM (inactive)	> 100 µM (inactive)	41 µM (inactive)	0.453 µM (active)	14.5 µM (inactive)	20.7 µM (inactive)	35.3 µM (inactive)	31.2 µM (inactive)	–
COc1ccc(/C=C2\C(=O)N(C)C(=O)c3cc(OC)c(OC)cc32)cc1OC	43.5 µM (inactive)	> 100 µM (inactive)	14.5 µM (inactive)	–	16 µM (inactive)	65.2 µM (inactive)	52.1 µM (inactive)	12.9 µM (inactive)	15.7 µM (inactive)	37.4 µM (inactive)	38.9 µM (inactive)	49.7 µM (inactive)	34.9 µM (inactive)	28.8 µM (inactive)	–	19.2 µM (inactive)	24.5 µM (inactive)	47.3 µM (inactive)	48 µM (inactive)	27.7 µM (inactive)
O=c1c2c3c(sc2nc2n1N=CN(c1ccc(F)cc1)C2)CCCC3	> 100 µM (inactive)	> 100 µM (inactive)	–	> 100 µM (inactive)	> 100 µM (inactive)	> 100 µM (inactive)	> 100 µM (inactive)	> 100 µM (inactive)	> 100 µM (inactive)	> 100 µM (inactive)	> 100 µM (inactive)	> 100 µM (inactive)	–	> 100 µM (inactive)	> 100 µM (inactive)	> 100 µM (inactive)	> 100 µM (inactive)	> 100 µM (inactive)	> 100 µM (inactive)	> 100 µM (inactive)
CCn1c2ccc(O)c(C(=O)OC)c2c2cc3ccccc3c(O)c21	12.3 µM (inactive)	22.2 µM (inactive)	20.1 µM (inactive)	15.3 µM (inactive)	–	20.7 µM (inactive)	7.87 µM (inactive)	26.2 µM (inactive)	18.3 µM (inactive)	14.5 µM (inactive)	18.1 µM (inactive)	20.8 µM (inactive)	18.7 µM (inactive)	14.2 µM (inactive)	–	17.4 µM (inactive)	11.5 µM (inactive)	31.6 µM (inactive)	22.5 µM (inactive)	10.2 µM (inactive)
C=C(C)[C@H]1C2=CC(C)=C(O2)[C@@H](O[C@@H]2c3oc(cc3C)[C@H](C(=C)C)[C@H]3C=C(CC[C@H]2C(=C)C)C(=O)O3)[C@H](C(=C)C)CCC2=C[C@H]1OC2=O	> 100 µM (inactive)	> 100 µM (inactive)	> 100 µM (inactive)	> 100 µM (inactive)	> 100 µM (inactive)	> 100 µM (inactive)	> 100 µM (inactive)	> 100 µM (inactive)	> 100 µM (inactive)	> 100 µM (inactive)	> 100 µM (inactive)	> 100 µM (inactive)	–	> 100 µM (inactive)	> 100 µM (inactive)	> 100 µM (inactive)	> 100 µM (inactive)	> 100 µM (inactive)	> 100 µM (inactive)	> 100 µM (inactive)
CC1CSC(=S)N1C(=O)N1C(=S)SCC1C (centres undefined)	27.8 µM (inactive)	36.6 µM (inactive)	12.1 µM (inactive)	27.8 µM (inactive)	20.4 µM (inactive)	21.9 µM (inactive)	23.6 µM (inactive)	26.5 µM (inactive)	11.5 µM (inactive)	27.4 µM (inactive)	–	24.7 µM (inactive)	19.3 µM (inactive)	17 µM (inactive)	23.4 µM (inactive)	12.5 µM (inactive)	28.6 µM (inactive)	19.3 µM (inactive)	22.8 µM (inactive)	18.7 µM (inactive)
Nc1ccc(Oc2ccc(C34CC5CC6C3CC3CC4C(C5)C6(c4ccc(Oc5ccc(N)c(O)c5)cc4)C3)cc2)cc1O	3.15 µM (inactive)	1.87 µM (inactive)	0.542 µM (active)	3.69 µM (inactive)	2.87 µM (inactive)	2.27 µM (inactive)	2.29 µM (inactive)	3.52 µM (inactive)	1.61 µM (inactive)	1.47 µM (inactive)	4.27 µM (inactive)	1.66 µM (inactive)	0.0255 µM (active)	2.96 µM (inactive)	–	1.62 µM (inactive)	0.652 µM (active)	3.64 µM (inactive)	2.42 µM (inactive)	1.93 µM (inactive)
COc1cc([C@@H]2c3cc4c(cc3[C@@H](OC3OC5CO[C@@H](c6cccs6)OC5C(O)C3O)[C@H]3COC(=O)[C@H]23)OCO4)cc(OC)c1O (some centres undefined)	0.285 µM (active)	0.671 µM (active)	0.0521 µM (active)	0.753 µM (active)	0.206 µM (active)	0.594 µM (active)	–	0.32 µM (active)	0.482 µM (active)	1.73 µM (inactive)	5.12 µM (inactive)	1.11 µM (active)	0.205 µM (active)	0.548 µM (active)	0.502 µM (active)	0.0117 µM (active)	0.162 µM (active)	1.86 µM (inactive)	4.35 µM (inactive)	0.164 µM (active)
CNC(=O)C(NC(=O)[C@H](CC(C)C)NC(=O)[C@@H](S)CCN1C(=O)N(C)C(C)(C)C1=O)C(C)(C)C (some centres undefined)	> 100 µM (inactive)	> 100 µM (inactive)	> 100 µM (inactive)	> 100 µM (inactive)	2.91 µM (inactive)	> 100 µM (inactive)	> 100 µM (inactive)	> 100 µM (inactive)	> 100 µM (inactive)	–	> 100 µM (inactive)	> 100 µM (inactive)	–	> 100 µM (inactive)	–	> 100 µM (inactive)	> 100 µM (inactive)	> 100 µM (inactive)	> 100 µM (inactive)	> 100 µM (inactive)
COC(=O)Oc1nn(C(=O)OC)c(=O)c2ccccc12	> 100 µM (inactive)	59.8 µM (inactive)	> 100 µM (inactive)	> 100 µM (inactive)	> 100 µM (inactive)	> 100 µM (inactive)	> 100 µM (inactive)	> 100 µM (inactive)	> 100 µM (inactive)	> 100 µM (inactive)	–	> 100 µM (inactive)	61.8 µM (inactive)	> 100 µM (inactive)	54.5 µM (inactive)	> 100 µM (inactive)	74.5 µM (inactive)	> 100 µM (inactive)	> 100 µM (inactive)	> 100 µM (inactive)
CN(/N=C/c1ccc(Cl)c(Cl)c1)C1=NCCN1	16.4 µM (inactive)	30.3 µM (inactive)	–	28.1 µM (inactive)	12.4 µM (inactive)	16.5 µM (inactive)	13.7 µM (inactive)	27.1 µM (inactive)	13.8 µM (inactive)	28.6 µM (inactive)	41.2 µM (inactive)	11.9 µM (inactive)	21.2 µM (inactive)	16.4 µM (inactive)	15.8 µM (inactive)	31.2 µM (inactive)	23 µM (inactive)	20.1 µM (inactive)	–	24.8 µM (inactive)
O=[N+]([O-])c1ccc(Cl)cc1C1ON=C(c2ccccc2)N1C12CC3CC(CC(C3)C1)C2 (centres undefined)	> 100 µM (inactive)	> 100 µM (inactive)	73.6 µM (inactive)	–	57.5 µM (inactive)	> 100 µM (inactive)	> 100 µM (inactive)	64.3 µM (inactive)	> 100 µM (inactive)	97.7 µM (inactive)	> 100 µM (inactive)	> 100 µM (inactive)	> 100 µM (inactive)	> 100 µM (inactive)	0.0245 µM (active)	> 100 µM (inactive)	> 100 µM (inactive)	> 100 µM (inactive)	> 100 µM (inactive)	> 100 µM (inactive)
Nc1cccc2cc(S(=O)(=O)Nc3ccc(C(=O)O)cc3)ccc12	> 100 µM (inactive)	> 100 µM (inactive)	> 100 µM (inactive)	> 100 µM (inactive)	> 100 µM (inactive)	> 100 µM (inactive)	–	> 100 µM (inactive)	> 100 µM (inactive)	> 100 µM (inactive)	> 100 µM (inactive)	> 100 µM (inactive)	–	> 100 µM (inactive)	98.2 µM (inactive)	> 100 µM (inactive)	> 100 µM (inactive)	> 100 µM (inactive)	> 100 µM (inactive)	> 100 µM (inactive)
Cc1cc(C)nc(NC(=O)c2ccc(Br)s2)c1	> 100 µM (inactive)	> 100 µM (inactive)	–	> 100 µM (inactive)	35.3 µM (inactive)	21.3 µM (inactive)	> 100 µM (inactive)	> 100 µM (inactive)	> 100 µM (inactive)	> 100 µM (inactive)	> 100 µM (inactive)	> 100 µM (inactive)	56.9 µM (inactive)	5.13 µM (inactive)	47.8 µM (inactive)	> 100 µM (inactive)	31.9 µM (inactive)	> 100 µM (inactive)	25.6 µM (inactive)	3.3 µM (inactive)
